Experiment [1] concerns the target SCTR (secretin receptor) (Homo sapiens, UniProt P47872). The experiment can be described thus: cAMP accumulation assay, agonist mode. The class given is cell-based. To be noted: CHO-K1, read-out: Emax in cAMP accumulation assays. A general note: Cyclic AMP is a second messenger, typically raised through Gs and lowered through Gi signalling.
In experiment [2] the target is SCTR-SmBiT (UniProt P47872 23-440). The experiment can be described thus: cell-based or functional assay.
Chain of SCTR-SmBiT (P47872 23-440): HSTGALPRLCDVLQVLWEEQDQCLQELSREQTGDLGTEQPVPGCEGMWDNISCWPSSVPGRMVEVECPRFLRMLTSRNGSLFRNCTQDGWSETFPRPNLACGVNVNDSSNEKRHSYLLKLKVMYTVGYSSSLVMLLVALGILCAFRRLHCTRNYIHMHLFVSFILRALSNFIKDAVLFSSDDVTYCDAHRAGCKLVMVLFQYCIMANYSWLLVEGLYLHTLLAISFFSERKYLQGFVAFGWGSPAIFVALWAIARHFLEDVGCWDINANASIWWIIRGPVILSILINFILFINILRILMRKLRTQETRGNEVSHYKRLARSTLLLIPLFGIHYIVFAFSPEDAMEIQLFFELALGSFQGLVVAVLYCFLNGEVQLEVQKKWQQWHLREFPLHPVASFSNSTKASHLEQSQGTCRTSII

Chain of SCTR (secretin receptor) (P47872 23-440): as above

Consider `CC(C)C[C@H](NC(=O)CNC(=O)[C@H](CCC(N)=O)NC(=O)[C@H](CC(C)C)NC(=O)[C@H](CC(C)C)NC(=O)[C@H](CCCNC(=N)N)NC(=O)[C@H](CCC(N)=O)NC(=O)[C@H](CC(C)C)NC(=O)[C@H](CCCNC(=N)N)NC(=O)[C@H](C)NC(=O)CNC(=O)[C@H](CCC(=O)O)NC(=O)[C@H](CCCNC(=N)N)NC(=O)[C@H](CC(C)C)NC(=O)[C@H](CCCNC(=N)N)NC(=O)[C@H](CO)NC(=O)[C@H](CC(C)C)NC(=O)[C@H](CCC(=O)O)NC(=O)[C@H](CO)NC(=O)[C@@H](NC(=O)[C@H](Cc1ccccc1)NC(=O)[C@@H](NC(=O)CNC(=O)[C@@H](N)CC(=O)O)[C@@H](C)O)[C@@H](C)O)C(=O)N[C@H](C(N)=O)C(C)C` [Sec(3–27)], for which, in experiment [1], the maximal effect (Emax) – broadly, the size of the effect at its maximum, as opposed to the concentration needed – is 30%.
For HSDGTFTSELSRLREGARLQRLL [Sec(1–23)], in experiment [2], the “β-arrestin-2 recruitment (NanoBiT, SCTR-SmBiT with LgBiT-ARRB2), EC50” value was found to be 1.3 µM.

For the origin of these results see paper PMC8278649 (SLAS discovery : advancing life sciences R & D, 2020).
